Earlier results as cited in US8968801B1, “Supplement composition for supporting DNA repair and method of use” (Cellhealth Technologies Ltd., priority 2011, dated 2015).

Tested on: ras-transformed human mammary epithelial cells
Conditions: eupatilin derived from artemisia plants (Kim D H, et al. 2004)

For `COc1ccc(-c2cc(=O)c3c(O)c(OC)c(O)cc3o2)cc1OC` [eupatilin], which cell cycle arrest is on record?
The cell cycle arrest was “induces cell cycle arrest”.
